From PubChem BioAssay (NCI)
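Following 48 hours of exposure in 96-well plates, responses at five concentrations were used to interpolate endpoints linearly. At the TGI there is no net growth.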

Key:
Test in all cases: NCI anticancer screen, dose series, 48 h
[1] = test system: A549 NSCLC
[2] = test system: OVCAR-4 ovarian
[3] = test system: SK-MEL-2 melanoma
[4] = test system: SK-MEL-28 melanoma
[5] = test system: K-562 leukemia
[6] = test system: SW-620 colon
[7] = test system: DMS 114 small cell lung
[8] = test system: SNB-78 CNS
[9] = test system: SR leukemia
[10] = test system: KM12 colon
[11] = test system: M19-MEL melanoma
[12] = test system: RPMI-8226 leukemia
[13] = test system: U251 CNS
[14] = test system: NCI-H23 lung
[15] = test system: LXFL 529 NSCLC
[16] = test system: SK-OV-3 ovarian
[17] = test system: TK-10 renal
[18] = test system: LOX IMVI melanoma
[19] = test system: COLO 205 colon
[20] = test system: A498 renal
[21] = test system: UACC-257 melanoma
[22] = test system: SNB-19 CNS
[23] = test system: HOP-92 NSCLC
[24] = test system: NCI-H522 lung
[25] = test system: HT29 colon
[26] = test system: SK-MEL-5 melanoma
[27] = test system: CCRF-CEM leukemia
[28] = test system: HOP-62 NSCLC
[29] = test system: 786-0 renal
[30] = test system: M14 melanoma
[31] = test system: MOLT-4 leukemia
[32] = test system: IGROV1 ovarian
[33] = test system: OVCAR-3 ovarian
[34] = test system: CAKI-1 renal
[35] = test system: OVCAR-8 ovarian
[36] = test system: UACC-62 melanoma
[37] = test system: NCI-H226 lung
[38] = test system: DLD-1 colon
[39] = test system: ACHN renal
[40] = test system: KM20L2 colon
[41] = test system: SF-539 CNS
[42] = test system: UO-31 renal
[43] = test system: HOP-18 NSCLC
[44] = test system: NCI-H460 lung
[45] = test system: HCT-116 colon
[46] = test system: OVCAR-5 ovarian
[47] = test system: HL-60(TB) leukemia
[48] = test system: SF-295 CNS
[49] = test system: HCT-15 colon
[50] = test system: SN12C renal
[51] = test system: SF-268 CNS
[52] = test system: MALME-3M melanoma
[53] = test system: DMS 273 small cell lung
[54] = test system: HCC-2998 colon

In the case of `CCN(CC)CCNc1ccc2ncn3c4ccccc4c(=O)c1c23`, the TGI [1] is reported as 10.2 µM, the TGI [2] is reported as 9.53 µM and the TGI [3] is reported as 16.3 µM. For the same compound, the TGI [4] was 16.4 µM, the TGI [5] was > 100 µM and the TGI [6] was 16 µM. For the same compound, the TGI [7] was 17.5 µM, the TGI [8] was 18.9 µM and the TGI [9] was > 100 µM. The TGI [10] was 17.6 µM, the TGI [11] was 13.9 µM and the TGI [12] was > 100 µM. For the same compound, the TGI [13] was 17.5 µM, the TGI [14] was 19.8 µM and the TGI [15] was 18.3 µM. The TGI [16] was 14.3 µM, the TGI [17] was 79.9 µM and the TGI [18] was 3.73 µM. The TGI [19] was 9.78 µM, the TGI [20] was 20.6 µM and the TGI [21] was 15.1 µM. It also gave a TGI [22] of 32 µM, a TGI [23] of 10.4 µM and a TGI [24] of 12.3 µM. The TGI [25] was 11 µM, the TGI [26] was 13.3 µM and the TGI [27] was > 100 µM. It also gave a TGI [28] of 21.6 µM, a TGI [29] of 15.4 µM and a TGI [30] of 16.8 µM. The TGI [31] was > 100 µM, the TGI [32] was 15.7 µM and the TGI [33] was 49.7 µM. For the same compound, the TGI [34] was 6.73 µM, the TGI [35] was 13.3 µM and the TGI [36] was 14.6 µM. For the same compound, the TGI [37] was 7.67 µM, the TGI [38] was 18.9 µM and the TGI [39] was 12.2 µM. It also gave a TGI [40] of 17.9 µM, a TGI [41] of 18 µM and a TGI [42] of 12.2 µM. For the same compound, the TGI [43] was 37.4 µM, the TGI [44] was 8.98 µM and the TGI [45] was 12.8 µM. The TGI [46] was 34.1 µM, the TGI [47] was > 100 µM and the TGI [48] was 14.5 µM. For the same compound, the TGI [49] was 16 µM, the TGI [50] was > 100 µM and the TGI [51] was 18.7 µM. The TGI [52] was 15.1 µM.

For `O=C(O)CSc1ccc2[nH]c3ccccc3c(=O)c2c1`, the TGI [1] was > 100 µM, the TGI [2] was > 100 µM and the TGI [4] was > 100 µM. For the same compound, the TGI [5] was > 100 µM, the TGI [6] was > 100 µM and the TGI [7] was > 100 µM. The TGI [9] was > 100 µM, the TGI [11] was > 100 µM and the TGI [12] was > 100 µM. For the same compound, the TGI [13] was > 100 µM, the TGI [53] was > 100 µM and the TGI [14] was > 100 µM. The TGI [15] was > 100 µM, the TGI [16] was > 100 µM and the TGI [17] was > 100 µM. For the same compound, the TGI [18] was > 100 µM, the TGI [19] was > 100 µM and the TGI [20] was > 100 µM. For the same compound, the TGI [21] was > 100 µM, the TGI [22] was > 100 µM and the TGI [23] was > 100 µM. For the same compound, the TGI [25] was > 100 µM, the TGI [26] was > 100 µM and the TGI [27] was > 100 µM. The TGI [28] was > 100 µM, the TGI [54] was > 100 µM and the TGI [29] was > 100 µM. For the same compound, the TGI [30] was > 100 µM, the TGI [31] was > 100 µM and the TGI [32] was > 100 µM. The TGI [33] was > 100 µM, the TGI [34] was > 100 µM and the TGI [35] was > 100 µM. For the same compound, the TGI [36] was > 100 µM, the TGI [37] was > 100 µM and the TGI [38] was > 100 µM. For the same compound, the TGI [39] was > 100 µM, the TGI [40] was > 100 µM and the TGI [42] was > 100 µM. The TGI [43] was > 100 µM, the TGI [44] was > 100 µM and the TGI [45] was > 100 µM. The TGI [46] was > 100 µM, the TGI [47] was > 100 µM and the TGI [48] was > 100 µM. For the same compound, the TGI [49] was > 100 µM, the TGI [50] was > 100 µM and the TGI [51] was > 100 µM. The TGI [52] was > 100 µM.
